From patent US8455475B2 (Gruenenthal GmbH, priority 2009, dated 2013) come the findings set out here.

Test [1] deals with T1, human B1R (bradykinin receptor 1) (Homo sapiens, UniProt P46663).
T1 construct: expressed in transfected cells; host or cells: CHO K1 cells
T1 sequence (P46663 1-353): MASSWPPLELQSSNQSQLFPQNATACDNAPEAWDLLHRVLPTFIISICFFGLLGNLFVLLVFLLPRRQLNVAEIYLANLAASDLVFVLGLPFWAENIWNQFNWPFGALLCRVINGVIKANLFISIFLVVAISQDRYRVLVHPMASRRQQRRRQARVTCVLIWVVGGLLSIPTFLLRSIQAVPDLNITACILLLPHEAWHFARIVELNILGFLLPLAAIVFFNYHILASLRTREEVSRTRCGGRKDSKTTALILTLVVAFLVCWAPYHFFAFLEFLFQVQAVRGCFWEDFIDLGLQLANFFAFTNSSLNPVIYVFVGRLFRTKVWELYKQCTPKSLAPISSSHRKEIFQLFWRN
As to the kind of experiment: FLIPR Ca2+ assay (Fluo-4) on CHO K1 cells stably transfected with the human B1R gene (hB1R cells): % inhibition at 10 μM / IC50, agonist Lys-Des-Arg9-bradykinin. As to conditions: for inhibition at 10 µM: CHO-K1, human B1R. Type of test: cell-based. In short, it runs like this: (§1)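 Stable CHO K1 lines, Fluo-4 dye, probenecid-containing buffer. Cpd 10 μM or dose range, 10–20 min, then EC80 agonist (h: Lys-Des-Arg9-BK; r: Des-Arg9-BK). Readout peak FC; % inhibition vs max; IC50 from n=2–3, N≥2.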

The target in test [2] is T2, rat B1R (bradykinin receptor 1) (Rattus norvegicus, UniProt P97583).
T2 construct: expressed in transfected cells; host or cells: CHO K1 cells
T2 sequence (P97583 1-337): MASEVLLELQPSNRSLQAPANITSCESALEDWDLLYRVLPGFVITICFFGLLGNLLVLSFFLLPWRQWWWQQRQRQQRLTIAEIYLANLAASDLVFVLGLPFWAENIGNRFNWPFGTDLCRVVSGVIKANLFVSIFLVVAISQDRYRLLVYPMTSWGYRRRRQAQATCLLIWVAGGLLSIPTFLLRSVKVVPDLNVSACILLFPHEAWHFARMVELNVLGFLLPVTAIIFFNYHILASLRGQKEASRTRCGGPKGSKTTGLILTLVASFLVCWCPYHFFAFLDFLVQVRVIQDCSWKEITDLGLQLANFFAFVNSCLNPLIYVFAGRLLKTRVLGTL
The test can be described thus: FLIPR Ca2+ assay (Fluo-4) on CHO K1 cells stably transfected with the B1R gene of the rat (rB1R cells): % inhibition at 10 μM / IC50, agonist Des-Arg9-bradykinin. Type of test: cell-based. As to conditions: for inhibition at 10 µM: CHO-K1, rat B1R. In short, it runs like this: as §1

The inhibition is the drop in the measured response relative to a control, in per cent.

As for `COc1cc(C)c(S(=O)(=O)NC2CCc3ccc(C(=O)N4CCC5(CC4)CCN(c4ccncc4)CC5)cc32)c(C)c1` (centres unmarked) [Example H-03, 4-methoxy-2,6-dimethyl-N-[6-(9-pyridin-4-yl-3,9-diazaspiro[5.5]undecane-3-carbonyl)-2,3-dihydro-1H-inden-1-yl)-benzenssulfonic acid amide], in test [1] (10 µM), the “% Inhibition (human B1R) at 10 μM” value is recorded as 98%. In test [2], the “% Inhibition (rat B1R) at 10 μM” value was 104%.

Turning to `O=C(N[C@@H]1CCc2ccc(C(=O)N3CCC4(CC3)CCN(c3ccncc3)CC4)cc21)c1c(Cl)cccc1C(F)(F)F` [Example H-85, 2-Chloro-N-[(1R)-6-(9-pyridin-4-yl-3,9-diazaspiro[5.5]undecane-3-carbonyl]-2,3-dihydro-1H-inden-1-yl]-6-(trilfuoromethyl)-benzamide], the inhibition at 10 µM is 100% in test [1] and 103% in test [2].

Regarding `O=C(N[C@@H]1CCc2ccc(C(=O)N3CCC4(CC3)CCN(c3ccncc3)CC4)cc21)c1cccc(Cl)c1Cl` [Example H-95, 2,3-Dichloro-N-[(1R)-6-(9-pyridin-4-yl-3,9-diazaspiro[5.5]undecane-3-carbonyl)-2,3-dihydro-1H-inden-1-yl]-benzamide], the inhibition at 10 µM in test [1] worked out at 100%; in test [2], 98%.

Regarding `N#Cc1ccc(N2CCC3(CCN(C(=O)c4ccc5c(c4)[C@H](NC(=O)c4ccccc4Cl)CC5)C3)CC2)cc1` [Example H-140, 2-Chloro-N-[(1R)-6-[8-(4-cyano-phenyl)-3,8-diazaspiro[4.5]decane-3-carbonyl]-2,3-dihydro-1H-inden-1-yl]-benzamide], the inhibition at 10 µM worked out at 70% in test [1] and 100% in test [2].

With `CN(C(=O)c1cc(Cl)ccc1Cl)C1CCc2ccc(C(=O)N3CCC4(CC3)CCN(c3ccncc3)CC4)cc21` (centres unmarked) [IND_CC-200, 2,5-Dichloro-N-methyl-N-[6-(9-pyridin-4-yl-3,9-diazaspiro[5.5]undecane-3-carbonyl)-2,3-dihydro-1H-inden-1-yl]-benzamide], the inhibition at 10 µM in test [1] was determined as 100%; in test [2] it was 102%.

With `O=C(NC1CCc2ccc(C(=O)N3CCC4(CCN(Cc5ccncc5)CC4)CC3)cc21)c1ccccc1Cl` (centres unmarked) [Ind_CC-098, 2-chloro-N-[6-[9-(pyridin-4-yl-methyl)-3,9-diazaspiro[5.5]undecane-3-carbonyl]-2,3-dihydro-1H-inden-1-yl]-benzamide], the inhibition at 10 µM stood at 34% in test [1] and 98% in test [2].

As for `O=C(NC1CCc2ccc(C(=O)N3CCC4(CCN(c5ccncc5)C4)C3)cc21)c1ccccc1Cl` (centres unmarked) [Example H-04, 2-chloro-N-[6-(8-pyridin-4-yl-3,8-diazaspiro[4.4]nonane-3-carbonyl)-2,3-dihydro-1H-inden-1-yl]-benzamide], the inhibition at 10 µM came to 100% in test [1] and 106% in test [2].

For the molecule `O=C(N[C@@H]1CCc2ccc(C(=O)N3CC4(CCN(c5ccncc5)CC4)C3)cc21)c1ccccc1Cl` [Example H-27, 2-chloro-N-[(1R)-6-(7-pyridin-4-yl-2,7-diazaspiro[3.5]nonane-2-carbonyl)-2,3-dihydro-1H-inden-1-yl]-benzamide], the inhibition at 10 µM in test [1] is 100%; in test [2], 102%.

Take `O=C(N[C@@H]1CCc2ccc(C(=O)N3CCC4(CC3)CCN(c3ccncc3)CC4)cc21)c1ccccc1F` [Example H-102, 2-Fluoro-N-[(1R)-6-(9-pyridin-4-yl-3,9-diazaspiro[5.5]undecane-3-carbonyl)-2,3-dihydro-1H-inden-1-yl]-benzamide]: the inhibition at 10 µM in test [1] was determined as 100%; in test [2], 109%.

As for `O=C(NC1CCc2ccc(C(=O)N3CCC4(CC3)CCN(c3ccc(C(F)(F)F)cc3)CC4)cc21)c1c(F)cccc1Cl` (centres unmarked) [IND_CC-278, 2-Chloro-6-fluoro-N-[6-[9-[4-(trifluoromethyl)-phenyl]-3,9-diazaspiro[5.5]undecane-3-carbonyl]-2,3-dihydro-1H-inden-1-yl]-benzamide], the inhibition at 10 µM in test [1] was found to be 35%; in test [2] it was 101%.

On to `O=C(NCc1ccccc1Cl)NC1CCc2ccc(C(=O)N3CCC4(CC3)CCN(c3ccncc3)CC4)cc21` (centres unmarked) [Ind_CC-012, 1-[(2-chlorophenyl)-methyl]-3-[6-(9-pyridin-4-yl-3,9-diazaspiro[5.5]undecane-3-carbonyl)-2,3-dihydro-1H-inden-1-yl]-urea], for which the inhibition at 10 µM in test [1] and in test [2] was 100% throughout.

Turning to `CN(C(=O)c1ccccc1Cl)C1CCc2ccc(C(=O)N3CCC4(CC3)CCN(c3cccnc3)CC4)cc21` (centres unmarked) [Ind_CC-107, 2-chloro-N-methyl-N-[6-(9-pyridin-3-yl-3,9-diazaspiro[5.5]undecane-3-carbonyl)-2,3-dihydro-1H-inden-1-yl]-benzamide], the inhibition at 10 µM in test [1] is 78%; in test [2], 100%.

For the molecule `O=C(NC1CCc2ccc(C(=O)N3CCC4(CC3)CCN(c3ccncc3)CC4)cc21)c1ccc(F)cc1Cl` (centres unmarked) [IND_CC-262, 2-Chloro-4-fluoro-N-[6-(9-pyridin-4-yl-3,9-diazaspiro[5.5]undecane-3-carbonyl)-2,3-dihydro-1H-inden-1-yl]-benzamide], the inhibition at 10 µM came to 100% in test [1] and 105% in test [2].

For the molecule `O=C(N[C@@H]1CCc2cc(C(=O)N3CCC4(CC3)CCN(c3ccncc3)CC4)ccc21)c1ccccc1Cl` [Example H-172, 2-chloro-N-[(1R)-5-(9-pyridin-4-yl-3,9-diazaspiro[5.5]undecane-3-carbonyl)-2,3-dihydro-1H-inden-1-yl]-benzamide], the inhibition at 10 µM in test [1] amounted to 99%; in test [2], 105%.

As to `CC1(C)CC(NC(=O)c2cc(Cl)ccc2Cl)c2cc(C(=O)N3CCC4(CC3)CCN(c3ccncc3)CC4)ccc21` (centres unmarked) [IND_CC-244, 2,5-Dichloro-N-[3,3-dimethyl-6-(3-pyridin-4-yl-3,9-diazaspiro[5.5]undecane-9-carbonyl)-1,2-dihydro-inden-1-yl]-benzamide], the inhibition at 10 µM in test [1] is 99%; in test [2], 103%.

As to `CC(C)CC(=O)N[C@@H]1CCc2ccc(C(=O)N3CCC4(CCN(c5ccncc5)CC4)C3)cc21` [Example H-143, 3-Methyl-N-[(1R)-6-(8-pyridin-4-yl-3,8-diazaspiro[4.5]decane-3-carbonyl)-2,3-dihydro-1H-inden-1-yl]-butyramide], the inhibition at 10 µM in test [1] was 100%; in test [2], 105%.

Turning to `CC1(C)Cc2ccc(C(=O)N3CCC4(CC3)CCN(c3ccncc3)CC4)cc2C1NC(=O)c1ccc(Cl)cc1Cl` (centres unmarked) [Ind_CC-067, 2,4-dichloro-N-[2,2-dimethyl-6-(9-pyridin-4-yl-3,9-diazaspiro[5.5]undecane-3-carbonyl)-1,3-dihydro-inden-1-yl]-benzamide], the inhibition at 10 µM in test [1] is 94%; in test [2] it was 101%.

With `O=C(NC1CCc2ccc(C(=O)N3CCC4(CCN(Cc5ccc(F)cc5Cl)CC4)C3)cc21)c1ccccc1Cl` (centres unmarked) [IND_CC-556, 2-Chloro-N-[6-[8-[(2-chloro-4-fluoro-phenyl)-methyl]-2,8-diazaspiro[4.5]decane-2-carbonyl]-2,3-dihydro-1H-inden-1-yl]-benzamide], the inhibition at 10 µM in test [1] was determined as 7%; in test [2] it was 100%.

Regarding `N#Cc1cccc(CN2CCC3(CC2)CCN(C(=O)c2ccc4c(c2)C(NC(=O)c2ccccc2Cl)CC4)C3)c1` (centres unmarked) [IND_CC-562, 2-Chloro-N-[6-[8-[(3-cyano-phenyl)-methyl]-2,8-diazaspiro[4.5]decane-2-carbonyl]-2,3-dihydro-1H-inden-1-yl]-benzamide], the inhibition at 10 µM in test [1] came to 27%; in test [2], 104%.

For the molecule `O=C(c1cccc2c1CC[C@H]2N1Cc2cccc(Cl)c2C1=O)N1CCC2(CCN(c3ccncc3)CC2)C1` [Example H-169, 7-Chloro-2-[(1R)-4-(8-pyridin-4-yl-3,8-diazaspiro[4.5]decane-3-carbonyl)-2,3-dihydro-1H-inden-1-yl]-2,3-dihydro-isoindol-1-one], the inhibition at 10 µM was determined as 54% in test [1] and 12% in test [2].

In the case of `CN([C@@H]1CCc2ccc(C(=O)N3CCC4(CCN(c5ccncc5)CC4)C3)cc21)S(=O)(=O)c1ccccc1Cl` [Example H-136, 2-Chloro-N-methyl-N-[(1R)-6-(8-pyridin-4-yl-3,8-diazaspiro[4.5]decane-3-carbonyl)-2,3-dihydro-1H-inden-1-yl]-benzenesulfonic acid amide], the values for the inhibition at 10 µM in test [1] and in test [2] were 99% and 101%, respectively.

In the case of `O=C(NC1CCc2ccc(C(=O)N3CCC4(CCN(c5ccncc5)CC4)C3)cc21)c1ccccc1Cl` (centres unmarked) [Example H-05, 2-chloro-N-[6-(8-pyridin-4-yl-3,8-diazaspiro[4.5]decane-3-carbonyl)-2,3-dihydro-1H-inden-1-yl]-benzamide], the “% Inhibition (human B1R) at 10 μM” value in test [1] stood at 100%. Moreover, the “% Inhibition (rat B1R) at 10 μM” value in test [2] is 105%.
